This passage reports EC50 results from BindingDB's records for doi:10.1016/j.bmcl.2006.03.030 (Gsk, 2006).

The target in this test is Transient receptor potential cation channel subfamily V member 1 (Homo sapiens, UniProt Q8NER1). The experiment in a line: FLIPR (Fluorescence Imaging Plate Reader)-Based Ca2+ Assay. The following applies: pH 7.2; 25 °C. As for the experimental part:
One day before the assay was performed, human TRPV1 expressed in 1321N1 astrocytoma cells were plated onto 96-well assay plates and grown until 2.5 h before the assay, and the cells were loaded with the Ca2+ reporter dye Fluo3-AM for 2 h at room temperature. After this, the cells were washed, and continuously being incubated for 30 min with medium containing test compounds at a range of different concentrations. The plates were then placed into a FLIPR to monitor fluorescence (excitation @ 488 nm and emission @540 nm) before and after the addition of capsaicin, antagonist potency was determined versus an EC80 concentration of capsaicin that was determined empirically on the day of the experiment.

Chain of Transient receptor potential cation channel subfamily V member 1 (Q8NER1 whole entry): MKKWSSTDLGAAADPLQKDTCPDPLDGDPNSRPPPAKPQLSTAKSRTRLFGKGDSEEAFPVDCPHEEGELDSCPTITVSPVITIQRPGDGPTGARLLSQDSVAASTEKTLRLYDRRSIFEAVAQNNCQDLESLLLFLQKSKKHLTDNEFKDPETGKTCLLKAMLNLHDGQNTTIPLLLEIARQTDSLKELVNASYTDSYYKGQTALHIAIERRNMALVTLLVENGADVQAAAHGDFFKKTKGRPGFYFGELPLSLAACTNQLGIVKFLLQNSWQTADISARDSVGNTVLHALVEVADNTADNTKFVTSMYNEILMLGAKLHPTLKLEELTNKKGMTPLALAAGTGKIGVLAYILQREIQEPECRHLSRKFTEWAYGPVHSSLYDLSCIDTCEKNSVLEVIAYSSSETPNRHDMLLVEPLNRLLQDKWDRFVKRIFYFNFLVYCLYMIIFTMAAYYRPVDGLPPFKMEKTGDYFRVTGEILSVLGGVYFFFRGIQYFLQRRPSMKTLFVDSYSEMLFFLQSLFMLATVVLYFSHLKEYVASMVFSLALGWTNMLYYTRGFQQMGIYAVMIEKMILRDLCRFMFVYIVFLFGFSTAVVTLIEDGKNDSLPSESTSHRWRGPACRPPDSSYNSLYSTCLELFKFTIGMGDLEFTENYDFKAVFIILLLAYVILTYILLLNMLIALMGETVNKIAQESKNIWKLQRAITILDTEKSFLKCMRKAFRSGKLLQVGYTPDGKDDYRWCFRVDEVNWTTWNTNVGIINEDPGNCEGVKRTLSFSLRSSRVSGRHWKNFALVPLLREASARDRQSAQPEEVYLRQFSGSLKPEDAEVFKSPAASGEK

For `Cc1ccc2c(c1)CCCN2CCNC(=O)Nc1ccccc1Br` [3-(2-bromophenyl)-1-[2-(6-methyl-1,2,3,4-tetrahydroquinolin-1-yl)ethyl]urea], it took 40 nM to reach a half-maximal effect (EC50). In the case of `Cc1cccc(N2CC[C@H](NC(=O)Nc3ccccc3Br)C2)c1` [1-(2-bromophenyl)-3-[(3S)-1-(3-methylphenyl)pyrrolidin-3-yl]urea], the half-maximal effective concentration (EC50) (in general, the concentration that produces a half-maximal response) was over 158 nM. `O=C(NCCN1CCc2c(F)cccc21)Nc1ccccc1Br` [1-(2-bromophenyl)-3-[2-(4-fluoro-2,3-dihydro-1H-indol-1-yl)ethyl]urea]: the concentration for a half-maximal effect (EC50) was found to be 40 nM.

As to `O=C(Nc1ccccc1Br)N[C@@H]1CCN(c2ncccc2C(F)(F)F)C1` [1-(2-bromophenyl)-3-[(3R)-1-[3-(trifluoromethyl)pyridin-2-yl]pyrrolidin-3-yl]urea], it took 79 nM to reach a half-maximal effect (EC50). Against the preceding compound, the EC50 is about 2-fold higher. On to `O=C(Nc1ccccc1Br)N[C@@H]1CCN(c2cccc(F)c2)C1` [1-(2-bromophenyl)-3-[(3R)-1-(3-fluorophenyl)pyrrolidin-3-yl]urea], for which the 50% effective concentration (EC50) is 16 nM. Compared with the last compound, the EC50 is about 4.9-fold lower. Turning to `O=C(Nc1ccccc1Br)N[C@@H]1CCN(c2ccccn2)C1` [1-(2-bromophenyl)-3-[(3R)-1-(pyridin-2-yl)pyrrolidin-3-yl]urea], the concentration giving a half-maximal response (EC50) was over 251 nM.

`Cc1ccc(N2CC[C@@H](NC(=O)Nc3ccccc3Br)C2)cc1F` [1-(2-bromophenyl)-3-[(3R)-1-(3-fluoro-4-methylphenyl)pyrrolidin-3-yl]urea] yielded an EC50 of 5 nM. This lies in the single-digit nanomolar range. With `O=C(Nc1ccccc1Br)N[C@@H]1CCN(c2ccc(F)c(F)c2)C1` [1-(2-bromophenyl)-3-[(3R)-1-(3,4-difluorophenyl)pyrrolidin-3-yl]urea] the figure was 8 nM. The compound `O=C(Nc1ccccc1Br)N[C@@H]1CCN(c2cc(C(F)(F)F)ccn2)C1` [1-(2-bromophenyl)-3-[(3R)-1-[4-(trifluoromethyl)pyridin-2-yl]pyrrolidin-3-yl]urea] showed a concentration giving a half-maximal response (EC50) of 126 nM. Take `O=C(Nc1ccccc1Br)N[C@@H]1CCN(c2ccc(Cl)cn2)C1` [1-(2-bromophenyl)-3-[(3R)-1-(5-chloropyridin-2-yl)pyrrolidin-3-yl]urea]: the response was half-maximal at 50 nM (EC50). `O=C(Nc1ccccc1Br)N[C@@H]1CCN(c2ccc(C(F)(F)F)cn2)C1` [1-(2-bromophenyl)-3-[(3R)-1-[5-(trifluoromethyl)pyridin-2-yl]pyrrolidin-3-yl]urea] displayed a concentration giving a half-maximal response (EC50) of 32 nM.

In turn, `Cc1cccc2c1CCN2CCNC(=O)Nc1ccccc1Br` [1-(2-bromophenyl)-3-[2-(4-methyl-2,3-dihydro-1H-indol-1-yl)ethyl]urea] came in with an EC50 of 40 nM. Regarding `Cc1cccc(N2CC[C@@H](NC(=O)Nc3ccccc3Br)C2)c1` [1-(2-bromophenyl)-3-[(3R)-1-(3-methylphenyl)pyrrolidin-3-yl]urea], the response was half-maximal at 20 nM (EC50). The result for `O=C(NCCN1CCc2cc(F)ccc21)Nc1ccccc1Br` [1-(2-bromophenyl)-3-[2-(5-fluoro-2,3-dihydro-1H-indol-1-yl)ethyl]urea] reads 79 nM; that for `O=C(NCCN1CCc2ccccc21)Nc1ccccc1Br` [1-(2-bromophenyl)-3-[2-(2,3-dihydro-1H-indol-1-yl)ethyl]urea], 158 nM; that for `Cc1ccc2c(c1)CCN2CCNC(=O)Nc1ccccc1Br` [1-(2-bromophenyl)-3-[2-(5-methyl-2,3-dihydro-1H-indol-1-yl)ethyl]urea], 50 nM.

The compound `N#Cc1ccc(N2CC[C@@H](NC(=O)Nc3ccccc3Br)C2)nc1` [1-(2-bromophenyl)-3-[(3R)-1-(5-cyanopyridin-2-yl)pyrrolidin-3-yl]urea] yielded a concentration giving a half-maximal response (EC50) of 200 nM. Compound `O=C(Nc1ccccc1Br)N[C@@H]1CCN(c2cccc(C(F)(F)F)n2)C1` [1-(2-bromophenyl)-3-[(3R)-1-[6-(trifluoromethyl)pyridin-2-yl]pyrrolidin-3-yl]urea] displayed an EC50 of 63 nM.

Take `O=C(Nc1ccccc1Br)N[C@@H]1CCN(c2ccc(Br)cn2)C1` [1-(2-bromophenyl)-3-[(3R)-1-(5-bromopyridin-2-yl)pyrrolidin-3-yl]urea]: a half-maximal effect (EC50) was put at 63 nM. Take `Cc1ccc(N2CC[C@@H](NC(=O)Nc3ccccc3Br)C2)nc1` [1-(2-bromophenyl)-3-[(3R)-1-(5-methylpyridin-2-yl)pyrrolidin-3-yl]urea]: the EC50 was over 200 nM.
